According to the NIST ThermoML archive (doi:10.1016/j.tca.2015.02.014):
± gives the expanded uncertainty stated by the source.

Assay: mn = molality of the nth substance listed, in mol/kg
Settings: 100 kPa, Liquid; for viscosity: Capillary tube (Ostwald / Ubbelohde) method; for speed of sound: Frequency=3 MHz, Sing-around technique in a fixed-path interferometer; for mass density: Vibrating tube method

C[C@H](CCC(=O)[O-])[C@H]1CC[C@H]2[C@@H]3CC[C@@H]4C[C@H](O)CC[C@]4(C)[C@H]3C[C@H](O)[C@]12C.[Na+] [sodium deoxycholate] + O
viscosity (293.15 K, m1 = 0.001): 1.003 ± 0.021 mPa·s
viscosity (293.15 K, m1 = 0.002): 1.004 ± 0.021 mPa·s
viscosity (293.15 K, m1 = 0.003): 1.006 ± 0.021 mPa·s
viscosity (293.15 K, m1 = 0.004): 1.009 ± 0.021 mPa·s
viscosity (293.15 K, m1 = 0.005): 1.014 ± 0.022 mPa·s
viscosity (293.15 K, m1 = 0.006): 1.027 ± 0.022 mPa·s
viscosity (293.15 K, m1 = 0.007): 1.036 ± 0.021 mPa·s
viscosity (293.15 K, m1 = 0.009): 1.045 ± 0.022 mPa·s
viscosity (293.15 K, m1 = 0.011): 1.049 ± 0.021 mPa·s
viscosity (293.15 K, m1 = 0.013): 1.053 ± 0.021 mPa·s
viscosity (293.15 K, m1 = 0.015): 1.062 ± 0.022 mPa·s
viscosity (293.15 K, m1 = 0.017): 1.069 ± 0.021 mPa·s
speed of sound (293.15 K, m1 = 0.001): 1483.4 ± 1.4 m/s
speed of sound (293.15 K, m1 = 0.002): 1483.8 ± 1.3 m/s
speed of sound (293.15 K, m1 = 0.003): 1484.2 ± 1.3 m/s
speed of sound (293.15 K, m1 = 0.004): 1484.5 ± 1.3 m/s
speed of sound (293.15 K, m1 = 0.005): 1484.6 ± 1.3 m/s
speed of sound (293.15 K, m1 = 0.006): 1485 ± 1.3 m/s
speed of sound (293.15 K, m1 = 0.007): 1485.2 ± 1.3 m/s
speed of sound (293.15 K, m1 = 0.009): 1485.5 ± 1.6 m/s
speed of sound (293.15 K, m1 = 0.011): 1485.8 ± 1.3 m/s
speed of sound (293.15 K, m1 = 0.013): 1486.2 ± 1.3 m/s
speed of sound (293.15 K, m1 = 0.015): 1486.5 ± 1.6 m/s
speed of sound (293.15 K, m1 = 0.017): 1486.8 ± 1.3 m/s
mass density (293.15 K, m1 = 0.001): 998.465 ± 0.14 kg/m3
mass density (293.15 K, m1 = 0.002): 998.579 ± 0.12 kg/m3
mass density (293.15 K, m1 = 0.003): 998.669 ± 0.12 kg/m3
mass density (293.15 K, m1 = 0.004): 998.749 ± 0.12 kg/m3
mass density (293.15 K, m1 = 0.005): 998.815 ± 0.12 kg/m3
mass density (293.15 K, m1 = 0.006): 998.905 ± 0.12 kg/m3
mass density (293.15 K, m1 = 0.007): 998.995 ± 0.12 kg/m3
mass density (293.15 K, m1 = 0.009): 999.185 ± 0.12 kg/m3
mass density (293.15 K, m1 = 0.011): 999.39 ± 0.12 kg/m3
mass density (293.15 K, m1 = 0.013): 999.585 ± 0.12 kg/m3
mass density (293.15 K, m1 = 0.015): 999.795 ± 0.12 kg/m3
mass density (293.15 K, m1 = 0.017): 999.993 ± 0.12 kg/m3
viscosity (298.15 K, m1 = 0.001): 0.8914 ± 0.021 mPa·s
viscosity (298.15 K, m1 = 0.002): 0.8926 ± 0.021 mPa·s
viscosity (298.15 K, m1 = 0.003): 0.8937 ± 0.021 mPa·s
viscosity (298.15 K, m1 = 0.004): 0.8967 ± 0.021 mPa·s
viscosity (298.15 K, m1 = 0.005): 0.9021 ± 0.021 mPa·s
viscosity (298.15 K, m1 = 0.006): 0.915 ± 0.022 mPa·s
viscosity (298.15 K, m1 = 0.007): 0.924 ± 0.021 mPa·s
viscosity (298.15 K, m1 = 0.009): 0.9323 ± 0.021 mPa·s
viscosity (298.15 K, m1 = 0.011): 0.9368 ± 0.021 mPa·s
viscosity (298.15 K, m1 = 0.013): 0.941 ± 0.021 mPa·s
viscosity (298.15 K, m1 = 0.015): 0.9489 ± 0.021 mPa·s
viscosity (298.15 K, m1 = 0.017): 0.956 ± 0.021 mPa·s
speed of sound (298.15 K, m1 = 0.001): 1497.2 ± 1.3 m/s
speed of sound (298.15 K, m1 = 0.002): 1497.5 ± 1.3 m/s
speed of sound (298.15 K, m1 = 0.003): 1497.8 ± 1.3 m/s
speed of sound (298.15 K, m1 = 0.004): 1497.9 ± 1.3 m/s
speed of sound (298.15 K, m1 = 0.005): 1498.1 ± 1.3 m/s
speed of sound (298.15 K, m1 = 0.006): 1498.4 ± 1.3 m/s
speed of sound (298.15 K, m1 = 0.007): 1498.7 ± 1.3 m/s
speed of sound (298.15 K, m1 = 0.009): 1499.2 ± 1.3 m/s
speed of sound (298.15 K, m1 = 0.011): 1499.5 ± 1.3 m/s
speed of sound (298.15 K, m1 = 0.013): 1499.9 ± 1.3 m/s
speed of sound (298.15 K, m1 = 0.015): 1500.2 ± 1.3 m/s
speed of sound (298.15 K, m1 = 0.017): 1500.6 ± 1.3 m/s
mass density (298.15 K, m1 = 0.001): 997.29 ± 0.14 kg/m3
mass density (298.15 K, m1 = 0.002): 997.395 ± 0.12 kg/m3
mass density (298.15 K, m1 = 0.003): 997.475 ± 0.12 kg/m3
mass density (298.15 K, m1 = 0.004): 997.555 ± 0.12 kg/m3
mass density (298.15 K, m1 = 0.005): 997.635 ± 0.12 kg/m3
mass density (298.15 K, m1 = 0.006): 997.715 ± 0.12 kg/m3
mass density (298.15 K, m1 = 0.007): 997.805 ± 0.13 kg/m3
mass density (298.15 K, m1 = 0.009): 997.996 ± 0.12 kg/m3
mass density (298.15 K, m1 = 0.011): 998.185 ± 0.12 kg/m3
mass density (298.15 K, m1 = 0.013): 998.388 ± 0.12 kg/m3
mass density (298.15 K, m1 = 0.015): 998.572 ± 0.12 kg/m3
mass density (298.15 K, m1 = 0.017): 998.772 ± 0.12 kg/m3
viscosity (303.15 K, m1 = 0.001): 0.7987 ± 0.021 mPa·s
viscosity (303.15 K, m1 = 0.002): 0.7999 ± 0.021 mPa·s
viscosity (303.15 K, m1 = 0.003): 0.801 ± 0.021 mPa·s
viscosity (303.15 K, m1 = 0.004): 0.8039 ± 0.021 mPa·s
viscosity (303.15 K, m1 = 0.005): 0.8092 ± 0.021 mPa·s
viscosity (303.15 K, m1 = 0.006): 0.822 ± 0.021 mPa·s
viscosity (303.15 K, m1 = 0.007): 0.8309 ± 0.021 mPa·s
viscosity (303.15 K, m1 = 0.009): 0.8391 ± 0.021 mPa·s
viscosity (303.15 K, m1 = 0.011): 0.8434 ± 0.021 mPa·s
viscosity (303.15 K, m1 = 0.013): 0.8476 ± 0.021 mPa·s
viscosity (303.15 K, m1 = 0.015): 0.8554 ± 0.021 mPa·s
viscosity (303.15 K, m1 = 0.017): 0.8624 ± 0.021 mPa·s
speed of sound (303.15 K, m1 = 0.001): 1509.6 ± 1.3 m/s
speed of sound (303.15 K, m1 = 0.002): 1509.9 ± 1.3 m/s
speed of sound (303.15 K, m1 = 0.003): 1510 ± 1.3 m/s
speed of sound (303.15 K, m1 = 0.004): 1510.2 ± 1.3 m/s
speed of sound (303.15 K, m1 = 0.005): 1510.5 ± 1.3 m/s
speed of sound (303.15 K, m1 = 0.006): 1510.7 ± 1.3 m/s
speed of sound (303.15 K, m1 = 0.007): 1511 ± 1.3 m/s
speed of sound (303.15 K, m1 = 0.009): 1511.3 ± 1.3 m/s
speed of sound (303.15 K, m1 = 0.011): 1511.8 ± 1.3 m/s
speed of sound (303.15 K, m1 = 0.013): 1512 ± 1.3 m/s
speed of sound (303.15 K, m1 = 0.015): 1512.3 ± 1.3 m/s
speed of sound (303.15 K, m1 = 0.017): 1512.7 ± 1.3 m/s
mass density (303.15 K, m1 = 0.001): 995.88 ± 0.14 kg/m3
mass density (303.15 K, m1 = 0.002): 995.983 ± 0.13 kg/m3
mass density (303.15 K, m1 = 0.003): 996.059 ± 0.13 kg/m3
mass density (303.15 K, m1 = 0.004): 996.137 ± 0.13 kg/m3
mass density (303.15 K, m1 = 0.005): 996.215 ± 0.13 kg/m3
mass density (303.15 K, m1 = 0.006): 996.289 ± 0.13 kg/m3
mass density (303.15 K, m1 = 0.007): 996.377 ± 0.13 kg/m3
mass density (303.15 K, m1 = 0.009): 996.557 ± 0.13 kg/m3
mass density (303.15 K, m1 = 0.011): 996.745 ± 0.13 kg/m3
mass density (303.15 K, m1 = 0.013): 996.921 ± 0.13 kg/m3
mass density (303.15 K, m1 = 0.015): 997.109 ± 0.13 kg/m3
mass density (303.15 K, m1 = 0.017): 997.29 ± 0.13 kg/m3
